Source: US20080268439A1, “ASSAY SYSTEMS AND METHODS FOR DETECTING MOLECULES THAT INTERACT WITH SK2 CHANNELS” (priority 2007, published 2008)

Experiments:
[1] = biological target: intermediate conductance Ca^2+-activated K^+ channels (Homo sapiens, UniProt O15554); settings: cited from earlier work
[2] = biological target: T1, hSK2A^+ expressed in mammalian tsA201 cells (Homo sapiens, UniProt Q9H2S1, DUP58-58); assay: Membrane potential sensitive dye fluorescence (FLIPR) assay in tsA201 cells stably expressing SK2; type: cell-based; settings: FIG. 9; for Hill coefficient (nH): inhibition of ATP/Tg induced decrease in fluorescence
T1 construct: other: 100 nM to 1 mM added online; normalized to maximum fluorescence a; Hill coefficient (nH); hSK2A^+ was 1743 nucleotides in length and encoded a polypeptide of 580 amino acids
T1 sequence (Q9H2S1 with tags, fused parts or gaps DUP58-58): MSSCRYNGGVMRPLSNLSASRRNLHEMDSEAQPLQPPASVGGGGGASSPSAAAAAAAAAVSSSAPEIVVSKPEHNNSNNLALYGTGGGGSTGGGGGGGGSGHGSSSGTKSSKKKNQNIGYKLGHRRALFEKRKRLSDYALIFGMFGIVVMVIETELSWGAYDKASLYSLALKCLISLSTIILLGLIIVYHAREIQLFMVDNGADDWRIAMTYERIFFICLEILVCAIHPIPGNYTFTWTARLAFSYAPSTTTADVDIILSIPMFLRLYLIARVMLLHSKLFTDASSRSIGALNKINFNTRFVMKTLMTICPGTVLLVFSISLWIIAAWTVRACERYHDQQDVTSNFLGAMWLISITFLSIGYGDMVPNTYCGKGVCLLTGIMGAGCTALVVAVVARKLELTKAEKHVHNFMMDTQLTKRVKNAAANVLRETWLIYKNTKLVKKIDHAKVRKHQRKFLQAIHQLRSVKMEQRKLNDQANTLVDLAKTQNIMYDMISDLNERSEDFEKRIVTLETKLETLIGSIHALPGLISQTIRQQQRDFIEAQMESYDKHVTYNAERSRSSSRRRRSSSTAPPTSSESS
Protocol: (§1) These cells were plated in a black optical bottom 384 well assay plate at a density of 8×10^6 cells/plate. […] After a 30-minute incubation in the voltage sensitive dye, the cell plate was transferred to a fluorescence plate reader (FLIPR384™, Molecular Devices), and ten baseline fluorescence readings were obtained.
(§2) In FIG. 8, time is represented in seconds on the X-axis, and fluorescence is represented in au on the Y-axis. ATP/Tg addition is indicated at time I, and CsCl addition is indicated at time II.
(§3) The magnitude of the ATP/Tg induced decrease in fluorescence was measured in the presence of each of a panel of known SK2 inhibitors. […]

[3] = test system: hSK2A^+ expressed in mammalian tsA201 cells; assay: as above; type: cell-based, human; settings: 10 minutes incubation
Protocol: as §1, §2, §3

Sequence of intermediate conductance Ca^2+-activated K^+ channels (O15554 whole entry): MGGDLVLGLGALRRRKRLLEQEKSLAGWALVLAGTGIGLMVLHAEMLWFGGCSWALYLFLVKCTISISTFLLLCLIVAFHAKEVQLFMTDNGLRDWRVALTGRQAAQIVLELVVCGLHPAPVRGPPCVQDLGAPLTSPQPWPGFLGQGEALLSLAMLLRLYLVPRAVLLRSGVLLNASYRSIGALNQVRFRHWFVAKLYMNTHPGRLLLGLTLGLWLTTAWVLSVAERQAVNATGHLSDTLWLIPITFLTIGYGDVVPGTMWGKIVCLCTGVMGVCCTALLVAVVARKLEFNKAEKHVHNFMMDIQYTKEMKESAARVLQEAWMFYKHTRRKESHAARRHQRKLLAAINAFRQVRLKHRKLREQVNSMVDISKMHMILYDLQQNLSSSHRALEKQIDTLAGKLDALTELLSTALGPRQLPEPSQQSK

| Compound | binding affinity of the inhibitors tested (rank order) [2] | effect on the fluorescence signals (responses to ATP/Tg and Cs+) ([3]; tested at 833 nM) | also measured |
| --- | --- | --- | --- |
| CCn1c(=O)[nH]c2ccccc21 [1-EBIO, 1-ethyl-2-benzimidazolinone] |  |  | effect on intermediate conductance Ca2+-activated K+ channels [1]: enhance activity |
| O=c1[nH]c2cc(C(F)(F)F)ccc2n1-c1cc(C(F)(F)F)ccc1O [NS1619] | apamin>scyllatoxin>NS1619>quinidine>bicuculline |  |  |
| C[N+]1(C)CCc2cc3c(cc2[C@H]1[C@@H]1OC(=O)c2c1ccc1c2OCO1)OCO3.[Br-] [bicuculline methobromide] | apamin>scyllatoxin>NS1619>quinidine>bicuculline |  | Hill coefficient (nH) [2]: 1 |
| Nc1cc(N2CCCCC2)nc(N)[n+]1[O-] [minoxidil] |  |  | effect on the fluorescence signals (responses to ATP/Tg and Cs+) ([3]; tested at 1.43 μM): no effect |
| CC(N/C(=N\C#N)Nc1ccncc1)C(C)(C)C (centres unmarked) [pinacidil] |  |  | effect on the fluorescence signals (responses to ATP/Tg and Cs+) ([3]; tested at 286 μM): no effect |
| C=C[C@H]1C[N@@]2CC[C@H]1C[C@@H]2[C@@H](O)c1ccnc2ccc(OC)cc12 [quinidine] | apamin>scyllatoxin>NS1619>quinidine>bicuculline |  | Hill coefficient (nH) [2]: 0.6 |
| iberiotoxin: inhibitor of the IK channel; isolated from Mesobuthus taniulus (QFTDVDCSVSKECWSVCKDLFGVDRGKCMGKKCRCYQ) |  | no effect |  |
| noxiustoxin: inhibitor of Ca2+- and voltage activated channels (TIINVKCTSPKQCSKPCKELYGSSAGAKCMNGKCKCYNN) |  | no effect |  |
| α-dendrotoxin (QPRRKLCILHRNPGRCYDKIPAFYYNQKKKQCERFDWSGCGGNSNRFKTIEECRRTCIG) |  | no effect |  |
